# Source: PubChem BioAssay AID2060611 (Molecular Pharmacology Branch, DTP, NCI, 2025)
# Tested on: 628569-122-R-J1-PDC complex spheroid viability
# Assay: Anticancer human tumor 628569-122-R-J1-PDC patient-derived head and neck squamous carcinoma cell line growth inhibition [CLK]
# Settings: for IC50: curve of first compound; for viability, T/C: stronger effect = lower value
# How it was run: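 Multi-cell-type spheroids combined patient-derived tumor cells with HUVEC endothelial cells and human mesenchymal stem cells. Paired agents were dosed in half-log steps down from about clinical Cmax, or from 10 microM where Cmax was unknown.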
# [1] = second compound 0.0316 µM, first compound 0.0316 µM
# [2] = second compound 0.0316 µM, first compound 0.1 µM
# [3] = second compound 0.0316 µM, first compound 0.316 µM
# [4] = second compound 0.0316 µM, first compound 1 µM
# [5] = second compound 0.0316 µM, first compound 3.16 µM
# [6] = second compound 0.0316 µM, first compound 10 µM
# [7] = second compound 0.1 µM, first compound 0.0316 µM
# [8] = second compound 0.1 µM, first compound 0.1 µM
# [9] = second compound 0.1 µM, first compound 0.316 µM
# [10] = second compound 0.1 µM, first compound 1 µM
# [11] = second compound 0.1 µM, first compound 3.16 µM
# [12] = second compound 0.1 µM, first compound 10 µM
# [13] = second compound 0.316 µM, first compound 0.0316 µM
# [14] = second compound 0.316 µM, first compound 0.1 µM
# [15] = second compound 0.316 µM, first compound 0.316 µM
# [16] = second compound 0.316 µM, first compound 1 µM
# [17] = second compound 0.316 µM, first compound 3.16 µM
# [18] = second compound 0.316 µM, first compound 10 µM
# [19] = second compound 1 µM, first compound 0.0316 µM
# [20] = second compound 1 µM, first compound 0.1 µM
# [21] = second compound 1 µM, first compound 0.316 µM
# [22] = second compound 1 µM, first compound 1 µM
# [23] = second compound 1 µM, first compound 3.16 µM
# [24] = second compound 1 µM, first compound 10 µM
# [25] = second compound 3.16 µM, first compound 0.0316 µM
# [26] = second compound 3.16 µM, first compound 0.1 µM
# [27] = second compound 3.16 µM, first compound 0.316 µM
# [28] = second compound 3.16 µM, first compound 1 µM
# [29] = second compound 3.16 µM, first compound 3.16 µM
# [30] = second compound 3.16 µM, first compound 10 µM
# [31] = second compound 10 µM, first compound 0.0316 µM
# [32] = second compound 10 µM, first compound 0.1 µM
# [33] = second compound 10 µM, first compound 0.316 µM
# [34] = second compound 10 µM, first compound 1 µM
# [35] = second compound 10 µM, first compound 3.16 µM
# [36] = second compound 10 µM, first compound 10 µM
# 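Also: spheroids exposed to agents for seven days before readout.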
# 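For viability, T/C in this document: 100% = DMSO vehicle control viability.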
structure (smiles),measurement,setting,value
CC(=O)O[C@H]1C(=O)[C@@]2(C)[C@H]([C@H](OC(=O)c3ccccc3)[C@]3(O)C[C@H](OC(=O)[C@H](O)[C@@H](NC(=O)c4ccccc4)c4ccccc4)C(C)=C1C3(C)C)[C@]1(OC(C)=O)CO[C@@H]1C[C@@H]2O + CN1CCN(c2cc(C(=O)Nc3cc4cc(-c5cnn(C)c5)ccc4cn3)ccn2)CC1,IC50,second compound 0.0316 µM,< 31.6 nM
same,IC50,second compound 0.1 µM,< 31.6 nM
same,IC50,second compound 0.316 µM,< 31.6 nM
same,IC50,second compound 1 µM,< 31.6 nM
same,IC50,second compound 3.16 µM,< 31.6 nM
same,IC50,second compound 10 µM,< 31.6 nM
same,"viability, T/C",[1],39.9%
same,"viability, T/C",[2],34.4%
same,"viability, T/C",[3],38%
same,"viability, T/C",[4],41%
same,"viability, T/C",[5],41.6%
same,"viability, T/C",[6],54%
same,"viability, T/C",[7],37.5%
same,"viability, T/C",[8],33.4%
same,"viability, T/C",[9],39.5%
same,"viability, T/C",[10],42.7%
same,"viability, T/C",[11],47.2%
same,"viability, T/C",[12],67.3%
same,"viability, T/C",[13],33.2%
same,"viability, T/C",[14],41.9%
same,"viability, T/C",[15],41.7%
same,"viability, T/C",[16],41%
same,"viability, T/C",[17],33.7%
same,"viability, T/C",[18],49.4%
same,"viability, T/C",[19],4.9%
same,"viability, T/C",[20],5.86%
same,"viability, T/C",[21],4.18%
same,"viability, T/C",[22],3.31%
same,"viability, T/C",[23],3.36%
same,"viability, T/C",[24],4.26%
same,"viability, T/C",[25],5.69%
same,"viability, T/C",[26],4.99%
same,"viability, T/C",[27],6.92%
same,"viability, T/C",[28],3.95%
same,"viability, T/C",[29],5.22%
same,"viability, T/C",[30],3.46%
same,"viability, T/C",[31],1.88%
same,"viability, T/C",[32],4.8%
same,"viability, T/C",[33],3.63%
same,"viability, T/C",[34],4.24%
same,"viability, T/C",[35],3.42%
same,"viability, T/C",[36],1.77%
COc1ccc([C@@H](O)c2cc(-c3ncnc4cc(N5CCOCC5)ccc34)c(F)cc2Cl)nn1 + CN1CCN(c2cc(C(=O)Nc3cc4cc(-c5cnn(C)c5)ccc4cn3)ccn2)CC1,IC50,second compound 0.0316 µM,2100 nM
same,IC50,second compound 0.1 µM,314 nM
same,IC50,second compound 0.316 µM,< 31.6 nM
same,IC50,second compound 1 µM,< 31.6 nM
same,IC50,second compound 3.16 µM,< 31.6 nM
same,IC50,second compound 10 µM,< 31.6 nM
same,"viability, T/C",[1],95.9%
same,"viability, T/C",[2],88.2%
same,"viability, T/C",[3],68.8%
same,"viability, T/C",[4],71.6%
same,"viability, T/C",[5],37.3%
same,"viability, T/C",[6],27.3%
same,"viability, T/C",[7],86.9%
same,"viability, T/C",[8],61.7%
same,"viability, T/C",[9],48.8%
same,"viability, T/C",[10],42.6%
same,"viability, T/C",[11],34.5%
same,"viability, T/C",[12],22.8%
same,"viability, T/C",[13],27.4%
same,"viability, T/C",[14],22.6%
same,"viability, T/C",[15],21.3%
same,"viability, T/C",[16],15.6%
same,"viability, T/C",[17],13.4%
same,"viability, T/C",[18],7.64%
same,"viability, T/C",[19],5.08%
same,"viability, T/C",[20],4.84%
same,"viability, T/C",[21],10.1%
same,"viability, T/C",[22],7.13%
same,"viability, T/C",[23],6.18%
same,"viability, T/C",[24],5.7%
same,"viability, T/C",[25],7.69%
same,"viability, T/C",[26],7.5%
same,"viability, T/C",[27],9.02%
same,"viability, T/C",[28],9.74%
same,"viability, T/C",[29],6.25%
same,"viability, T/C",[30],6.05%
same,"viability, T/C",[31],2.13%
same,"viability, T/C",[32],3.81%
same,"viability, T/C",[33],3.72%
same,"viability, T/C",[34],1.54%
same,"viability, T/C",[35],2.76%
same,"viability, T/C",[36],1%
